# Laboratory results as given in PMC2916072 (Archives of biochemistry and biophysics, 2010).
# Target: Met receptor tyrosine kinase (Homo sapiens, UniProt P08581)
# Experiment: phospho-Met
# Format: cell-based
# Met receptor tyrosine kinase, sequence (P08581 25-307): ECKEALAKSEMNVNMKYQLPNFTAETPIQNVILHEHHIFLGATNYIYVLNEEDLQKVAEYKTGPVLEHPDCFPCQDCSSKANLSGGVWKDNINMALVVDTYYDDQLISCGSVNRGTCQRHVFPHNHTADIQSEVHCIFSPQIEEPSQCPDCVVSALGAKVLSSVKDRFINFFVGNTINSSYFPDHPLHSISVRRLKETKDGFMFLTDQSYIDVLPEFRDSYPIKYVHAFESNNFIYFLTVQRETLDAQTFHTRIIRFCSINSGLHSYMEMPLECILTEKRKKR
# Met receptor tyrosine kinase, sequence (P08581 308-1390): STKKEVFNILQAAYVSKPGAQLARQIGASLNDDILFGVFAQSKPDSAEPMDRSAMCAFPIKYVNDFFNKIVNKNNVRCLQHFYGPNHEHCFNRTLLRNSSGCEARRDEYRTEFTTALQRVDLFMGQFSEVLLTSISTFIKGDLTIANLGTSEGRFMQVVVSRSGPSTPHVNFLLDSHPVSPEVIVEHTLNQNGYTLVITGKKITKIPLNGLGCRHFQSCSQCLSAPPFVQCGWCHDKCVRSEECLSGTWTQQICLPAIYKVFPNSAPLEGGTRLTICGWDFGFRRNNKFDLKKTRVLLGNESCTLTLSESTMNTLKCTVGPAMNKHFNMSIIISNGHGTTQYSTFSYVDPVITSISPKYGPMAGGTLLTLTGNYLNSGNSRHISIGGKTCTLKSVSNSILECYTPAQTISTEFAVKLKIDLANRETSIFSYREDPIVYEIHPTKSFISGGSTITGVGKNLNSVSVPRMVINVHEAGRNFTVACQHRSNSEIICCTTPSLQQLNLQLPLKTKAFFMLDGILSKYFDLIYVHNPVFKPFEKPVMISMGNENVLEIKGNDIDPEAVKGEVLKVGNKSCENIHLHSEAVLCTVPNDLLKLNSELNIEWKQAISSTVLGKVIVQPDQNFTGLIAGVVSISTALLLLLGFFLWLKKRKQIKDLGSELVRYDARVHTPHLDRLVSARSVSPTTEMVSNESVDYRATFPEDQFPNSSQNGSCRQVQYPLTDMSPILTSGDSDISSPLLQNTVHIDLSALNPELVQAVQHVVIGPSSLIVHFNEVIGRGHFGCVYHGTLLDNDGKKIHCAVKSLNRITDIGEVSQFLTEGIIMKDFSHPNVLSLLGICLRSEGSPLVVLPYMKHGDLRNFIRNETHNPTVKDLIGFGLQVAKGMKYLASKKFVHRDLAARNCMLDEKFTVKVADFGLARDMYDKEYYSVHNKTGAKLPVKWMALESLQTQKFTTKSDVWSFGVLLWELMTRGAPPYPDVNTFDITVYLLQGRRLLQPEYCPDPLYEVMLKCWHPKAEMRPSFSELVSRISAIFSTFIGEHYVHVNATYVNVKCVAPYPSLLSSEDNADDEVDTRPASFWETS
compound,measurement,value
"Cc1[nH]c(/C=C2\C(=O)Nc3ccc(S(=O)(=O)N(C)c4cccc(Cl)c4)cc32)c(C)c1C(=O)N1CCN(C)CC1 [SU11274, (3Z)-N-(3-chlorophenyl)-3-({3,5-dimethyl-4-[(4-methylpiperazin-1-yl)carbonyl]-1H-pyrrol-2-yl}methylene)-N-methyl-2-oxoindoline-5-sulfonamide]",IC50,50 nM
